{"source": "patent US11472797B2", "about": "“Pesticidally active pyrazole derivatives” (SYNGENTA PARTICIPATIONS AG, priority 2017, dated 2022)", "key": {"[1]": {"test_system": "Spodoptera littoralis (Egyptian Cotton Leaf Worm)", "assay": "Spodoptera littoralis cotton leaf disc spray test", "format": "in vivo", "settings": "foliar, 72 h, application rate 200 ppm, L1 larvae, 3 days after infestation, read-out: control (at least one of mortality, anti-feedant effect, and growth inhibition)", "method": "Spodoptera littoralis (Egyptian Cotton Leaf Worm)\nCotton leaf discs were placed on agar in 24-well microtiter plates and sprayed with aqueous test solutions prepared from 10,000 ppm DMSO stock solutions. After drying the leaf discs were infested with five L1 larvae. The samples were assessed for mortality, anti-feedant effect, and growth inhibition in comparison to untreated samples 3 days after infestation. Control of Spodoptera littoralis by a test sample is when at least one of mortality, anti-feedant effect, and growth inhibition is higher than the untreated sample."}, "[2]": {"test_system": "Plutella xylostella (Diamond Back Moth)", "assay": "Plutella xylostella artificial diet test", "format": "in vivo", "settings": "120 h, application rate 200 ppm, L2 larvae, 5 days after infestation, read-out: effect in at least one of the two categories (mortality or growth inhibition)", "method": "Plutella xylostella (Diamond Back Moth):\n24-well microtiter plates with artificial diet were treated with aqueous test solutions prepared from 10,000 ppm DMSO stock solutions by pipetting. After drying, the plates were infested with L2 larvae (10 to 15 per well). The samples were assessed for mortality and growth inhibition in comparison to untreated samples 5 days after infestation. The following compounds gave an effect of at least 80% in at least one of the two categories (mortality or growth inhibition) at an application rate of 200 ppm: 1, 2, 3, 4, 5, 6, 7, 8, 9, 11 and 12."}, "[3]": {"test_system": "Diabrotica Balteata, (Corn Root Worm)", "assay": "Diabrotica balteata maize sprout spray test", "format": "in vivo", "settings": "96 h, application rate 200 ppm, L2 larvae, 4 days after infestation, read-out: effect in at least one of the two categories (mortality or growth inhibition)", "method": "Diabrotica Balteata, (Corn Root Worm) Maize sprouts, placed on an agar layer in 24-well microtiter plates were treated with aqueous test solutions prepared from 10,000 ppm DMSO stock solutions by spraying. After drying, the plates were infested with L2 larvae (6 to 10 per well). The samples were assessed for mortality and growth inhibition in comparison to untreated samples 4 days after infestation. The following compounds gave an effect of at least 80% in at least one of the two categories (mortality or growth inhibition) at an application rate of 200 ppm: 1, 2, 3, 5 and 6."}, "[4]": {"test_system": "Thrips tabaci (Onion Thrips)", "assay": "Thrips tabaci sunflower leaf disc spray test", "format": "in vivo", "settings": "foliar, 144 h, application rate 200 ppm, population of mixed ages, 6 days after infestation", "method": "Thrips tabaci (Onion Thrips):\n(§1) Sunflower leaf discs were placed on agar in 24-well microtiter plates and sprayed with aqueous test solutions prepared from 10,000 ppm DMSO stock solutions. After drying the leaf discs were infested with a thrips population of mixed ages. The samples were assessed for mortality 6 days after infestation."}, "[5]": {"test_system": "Tetranychus urticae (Two-Spotted Spider Mite)", "assay": "Tetranychus urticae bean leaf disc spray test", "format": "in vivo", "settings": "foliar, 192 h", "method": "Tetranychus urticae (Two-Spotted Spider Mite):\nas §1, with “Bean” for “Sunflower”, “discs” for “discs were placed”, “were” for “and”, “mite” for “thrips”, “on mixed population (mobile stages) 8” for “6”"}, "[6]": {"test_system": "Euschistus heros (Neotropical Brown Stink Bug)", "assay": "Euschistus heros soybean leaf spray test", "format": "in vivo", "settings": "120 h, application rate 200 ppm, N2 nymphs, 5 days after infestation, read-out: effect in at least one of the two categories (mortality or growth inhibition)", "method": "Euschistus heros (Neotropical Brown Stink Bug)\nSoybean leaves on agar in 24-well microtiter plates were sprayed with aqueous test solutions prepared from 10,000 ppm DMSO stock solutions. After drying the leaves were infested with N2 nymphs. The samples were assessed for mortality and growth inhibition in comparison to untreated samples 5 days after infestation. The following compounds gave an effect of at least 80% in at least one of the two categories (mortality or growth inhibition) at an application rate of 200 ppm: 1"}}}
{"compound": "Cn1nc(OC(F)(F)C(F)C(F)(F)F)c(C(F)(F)F)c1-c1cc(-c2cc(C(=O)NC3CC3)c(Cl)s2)on1", "note": "(stereo not shown) [Example 7, 2-chloro-N-cyclopropyl-5-[3-[5-(1,1,2,3,3,3-hexafluoropropoxy)-2-methyl-4-(trifluoromethyl)pyrazol-3-yl]isoxazol-5-yl]thiophene-3-carboxamide]", "values": [{"measurement": "mortality at 200 ppm", "setting": "[1]", "result": "≥ 80", "unit": "%"}, {"measurement": "percent effect (mortality or growth inhibition) at 200 ppm", "setting": "[2]", "result": "≥ 80", "unit": "%"}]}
{"compound": "CCN(C(=O)c1cc(-c2cc(-c3c(C(F)(F)F)c(OC(F)(F)C(F)C(F)(F)F)nn3C)no2)sc1C#N)C1CC1", "note": "(stereo not shown) [Example 3, 2-cyano-N-cyclopropyl-N-ethyl-5-[3-[5-(1,1,2,3,3,3-hexafluoropropoxy)-2-methyl-4-(trifluoromethyl)pyrazol-3-yl]isoxazol-5-yl]thiophene-3-carboxamide]", "values": [{"measurement": "percent effect (mortality or growth inhibition) at 200 ppm", "setting": "[2]", "result": "≥ 80", "unit": "%"}, {"measurement": "percent effect (mortality or growth inhibition) at 200 ppm", "setting": "[3]", "result": "≥ 80", "unit": "%"}, {"measurement": "mortality at 200 ppm", "setting": "[4]", "result": "≥ 80", "unit": "%"}]}
{"compound": "Cn1nc(OC(F)(F)C(F)C(F)(F)F)c(C(F)(F)F)c1-c1cc(-c2cc(C(=O)NC3(C#N)CC3)c(Cl)s2)on1", "note": "(stereo not shown) [Example 10, 2-chloro-N-(1-cyanocyclopropyl)-5-[3-[5-(1,1,2,3,3,3-hexafluoropropoxy)-2-methyl-4-(trifluoromethyl)pyrazol-3-yl]isoxazol-5-yl]thiophene-3-carboxamide]", "values": [{"measurement": "melting point", "result": "218 to 219", "unit": "°C"}]}
{"compound": "CN(C(=O)c1cc(-c2cc(-c3c(C(F)(F)F)c(OC(F)(F)C(F)C(F)(F)F)nn3C)no2)sc1Cl)C1(C#N)CC1", "note": "(stereo not shown) [Example 11, 2-chloro-N-(1-cyanocyclopropyl)-5-[3-[5-(1,1,2,3,3,3-hexafluoropropoxy)-2-methyl-4-(trifluoromethyl)pyrazol-3-yl]isoxazol-5-yl]-N-methyl-thiophene-3-carboxamide]", "values": [{"measurement": "mortality at 200 ppm", "setting": "[1]", "result": "≥ 80", "unit": "%"}, {"measurement": "percent effect (mortality or growth inhibition) at 200 ppm", "setting": "[2]", "result": "≥ 80", "unit": "%"}]}
{"compound": "Cn1nc(OC(F)(F)C(F)C(F)(F)F)c(C(F)(F)F)c1-c1cc(-c2cc(C(=O)NC3CC3)c(C#N)s2)on1", "note": "(stereo not shown) [Example 1, 2-cyano-N-cyclopropyl-5-[3-[5-(1,1,2,3,3,3-hexafluoropropoxy)-2-methyl-4-(trifluoromethyl)pyrazol-3-yl]isoxazol-5-yl]thiophene-3-carboxamide]", "values": [{"measurement": "mortality at 200 ppm", "setting": "[1]", "result": "≥ 80", "unit": "%"}, {"measurement": "percent effect (mortality or growth inhibition) at 200 ppm", "setting": "[2]", "result": "≥ 80", "unit": "%"}, {"measurement": "percent effect (mortality or growth inhibition) at 200 ppm", "setting": "[3]", "result": "≥ 80", "unit": "%"}, {"measurement": "mortality at 200 ppm", "setting": "[4]", "result": "≥ 80", "unit": "%"}, {"measurement": "mortality at 200 ppm", "setting": "[5]", "result": "≥ 80", "unit": "%"}, {"measurement": "percent effect (mortality or growth inhibition) at 200 ppm", "setting": "[6]", "result": "≥ 80", "unit": "%"}]}
{"compound": "CN(C(=O)c1cc(-c2cc(-c3c(C(F)(F)F)c(OC(F)(F)C(F)C(F)(F)F)nn3C)no2)sc1C#N)C1CC1", "note": "(stereo not shown) [Example 2, 2-cyano-N-cyclopropyl-5-[3-[5-(1,1,2,3,3,3-hexafluoropropoxy)-2-methyl-4-(trifluoromethyl)pyrazol-3-yl]isoxazol-5-yl]-N-methyl-thiophene-3-carboxamide]", "values": [{"measurement": "percent effect (mortality or growth inhibition) at 200 ppm", "setting": "[2]", "result": "≥ 80", "unit": "%"}, {"measurement": "percent effect (mortality or growth inhibition) at 200 ppm", "setting": "[3]", "result": "≥ 80", "unit": "%"}, {"measurement": "mortality at 200 ppm", "setting": "[4]", "result": "≥ 80", "unit": "%"}, {"measurement": "mortality at 200 ppm", "setting": "[5]", "result": "≥ 80", "unit": "%"}]}
{"compound": "CCN(C(=O)c1cc(-c2cc(-c3c(C(F)(F)F)c(OC(F)(F)C(F)C(F)(F)F)nn3C)no2)sc1Cl)C1CC1", "note": "(stereo not shown) [Example 9, 2-chloro-N-cyclopropyl-N-ethyl-5-[3-[5-(1,1,2,3,3,3-hexafluoropropoxy)-2-methyl-4-(trifluoromethyl)pyrazol-3-yl]isoxazol-5-yl]thiophene-3-carboxamide]", "values": [{"measurement": "mortality at 200 ppm", "setting": "[1]", "result": "≥ 80", "unit": "%"}, {"measurement": "percent effect (mortality or growth inhibition) at 200 ppm", "setting": "[2]", "result": "≥ 80", "unit": "%"}]}
{"compound": "Cn1nc(OC(F)(F)C(F)C(F)(F)F)c(C(F)(F)F)c1-c1cc(-c2cc(C(=O)NC3(C#N)CC3)c(C#N)s2)on1", "note": "(stereo not shown) [Example 4, 2-cyano-N-(1-cyanocyclopropyl)-5-[3-[5-(1,1,2,3,3,3-hexafluoropropoxy)-2-methyl-4-(trifluoromethyl)pyrazol-3-yl]isoxazol-5-yl]thiophene-3-carboxamide]", "values": [{"measurement": "percent effect (mortality or growth inhibition) at 200 ppm", "setting": "[2]", "result": "≥ 80", "unit": "%"}, {"measurement": "mortality at 200 ppm", "setting": "[4]", "result": "≥ 80", "unit": "%"}]}
{"compound": "CN(C(=O)c1cc(-c2cc(-c3c(C(F)(F)F)c(OC(F)(F)C(F)C(F)(F)F)nn3C)no2)sc1Cl)C1CC1", "note": "(stereo not shown) [Example 8, 2-chloro-N-cyclopropyl-5-[3-[5-(1,1,2,3,3,3-hexafluoropropoxy)-2-methyl-4-(trifluoromethyl)pyrazol-3-yl]isoxazol-5-yl]-N-methyl-thiophene-3-carboxamide]", "values": [{"measurement": "mortality at 200 ppm", "setting": "[1]", "result": "≥ 80", "unit": "%"}, {"measurement": "percent effect (mortality or growth inhibition) at 200 ppm", "setting": "[2]", "result": "≥ 80", "unit": "%"}]}
{"compound": "CCN(C(=O)c1cc(-c2cc(-c3c(C(F)(F)F)c(OC(F)(F)C(F)C(F)(F)F)nn3C)no2)sc1C#N)C1(C#N)CC1", "note": "(stereo not shown) [Example 6, 2-cyano-N-(1-cyanocyclopropyl)-N-ethyl-5-[3-[5-(1,1,2,3,3,3-hexafluoropropoxy)-2-methyl-4-(trifluoromethyl)pyrazol-3-yl]isoxazol-5-yl]thiophene-3-carboxamide]", "values": [{"measurement": "mortality at 200 ppm", "setting": "[1]", "result": "≥ 80", "unit": "%"}, {"measurement": "percent effect (mortality or growth inhibition) at 200 ppm", "setting": "[2]", "result": "≥ 80", "unit": "%"}, {"measurement": "percent effect (mortality or growth inhibition) at 200 ppm", "setting": "[3]", "result": "≥ 80", "unit": "%"}, {"measurement": "mortality at 200 ppm", "setting": "[4]", "result": "≥ 80", "unit": "%"}]}
{"compound": "CCN(C(=O)c1cc(-c2cc(-c3c(C(F)(F)F)c(OC(F)(F)C(F)C(F)(F)F)nn3C)no2)sc1Cl)C1(C#N)CC1", "note": "(stereo not shown) [Example 12, 2-chloro-N-(1-cyanocyclopropyl)-N-ethyl-5-[3-[5-(1,1,2,3,3,3-hexafluoropropoxy)-2-methyl-4-(trifluoromethyl)pyrazol-3-yl]isoxazol-5-yl]thiophene-3-carboxamide]", "values": [{"measurement": "mortality at 200 ppm", "setting": "[1]", "result": "≥ 80", "unit": "%"}, {"measurement": "percent effect (mortality or growth inhibition) at 200 ppm", "setting": "[2]", "result": "≥ 80", "unit": "%"}]}
{"compound": "CN(C(=O)c1cc(-c2cc(-c3c(C(F)(F)F)c(OC(F)(F)C(F)C(F)(F)F)nn3C)no2)sc1C#N)C1(C#N)CC1", "note": "(stereo not shown) [Example 5, 2-cyano-N-(1-cyanocyclopropyl)-5-[3-[5-(1,1,2,3,3,3-hexafluoropropoxy)-2-methyl-4-(trifluoromethyl)pyrazol-3-yl]isoxazol-5-yl]-N-methyl-thiophene-3-carboxamide]", "values": [{"measurement": "mortality at 200 ppm", "setting": "[1]", "result": "≥ 80", "unit": "%"}, {"measurement": "percent effect (mortality or growth inhibition) at 200 ppm", "setting": "[2]", "result": "≥ 80", "unit": "%"}, {"measurement": "percent effect (mortality or growth inhibition) at 200 ppm", "setting": "[3]", "result": "≥ 80", "unit": "%"}, {"measurement": "mortality at 200 ppm", "setting": "[4]", "result": "≥ 80", "unit": "%"}]}
